Source: patent publication US7465582B1, “Nurr-1 induction of a dopaminergic neuronal fate in a neural stem cell or neural progenitor cell in vitro” (Neuro Therapeutics AB, priority 2000, dated 2008)

Tests used:
parental C17.2 cells = experiment: Co-culture of parental C17.2 cells with primary E16 ventral mesencephalic cells; TH expression; format: cell-based, mouse; details: parental C17.2 cells in co-culture; SR11237 to 1 μM, bFGF to 10 ng/ml
Experimental: (§1) C17.2 neural stem cells (Snyder, E. Y. et al. Cell 68, 33-51 (1992)) were maintained and passaged as previously described (Snyder, E. Y. et al. Cell 68, 33-51 (1992)). Ventral mesencephala from E16 rat embryos were dissected, mechanically dissociated and plated at a final density of 1×10^5 cells/cm^2 on poly-D-lysine coated culture wells in a defined, serum-free medium (N^2, consisting of a 1:1 mixture of F12 and DMEM containing insulin (10 ng/ml), transferrin (100 μg/ml), putrescine (100 μM), progesterone (20 nM), selenium (30 nM) glucose (6 mg/ml), and bovine serum albumin (1 mg/ml)). After 24 hours in vitro, co-cultures were initiated by directly plating 2.5−5×10^4 C17.2-derived cells into the primary cultures; all ages of cultures given use this point as 0 DIV. […]
(§2) Fixed cultures were incubated with one of the following antibodies, diluted appropriately in phosphate-buffered saline (PBS) containing 1% bovine serum albumin and 0.3% Triton-X 100: mouse anti-BrdU, 1:50 (DAKO, Denmark), mouse anti-β-tubulin, Type III (TuJ1), 1:250 (Sigma), mouse anti-TH, 1:1000 (Incstar, USA), rabbit anti-β-galactosidase, 1:250 (Cappel, USA) rabbit anti-GFAP, 1:500 (DAKO, Denmark), rabbit anti-AHD-2, 1:4000. […] Quantitative immunocytochemical data represent means and standard errors from 100-500 cells counted in each of 3-6 separate wells from 2-4 experiments. […]

Nurr1 clones = experiment: bFGF pretreatment of Nurr1 clones before co-culture with primary ventral mesencephalic cultures; BrdU labeling and TH expression; format: cell-based, mouse; details: bFGF pretreatment 5 DIV
Experimental: as §1, §2

C17.2 cells = details: Kitchens et al. 1994; cited from earlier work
[1] = tested on: Nurr1-c42-derived dopaminergic neurons; experiment: Response of TH positive c42 cells in co-culture to neurotrophic factors; format: cell-based, mouse; details: 9 DIV, after SR11237 and bFGF induction; compared to N2 control; NT-3 30 ng/ml
Experimental: as §1, §2

[2] = tested on: Nurr1 over-expressing C17.2 clones; experiment: Treatment of Nurr1 clones with trophic factors, mitogens, cytokines and other agents; TH immunoreactivity; format: cell-based, mouse; details: Nurr1 clones without co-culture; factors alone or combined
Source text: C17.2 cells were cotransfected with a CMX-Nurr1 expression vector (Perlmann, T. et al. Genes Dev. 9, 769-782 (1995)) and PGK-puromycin resistance plasmids (Nurr1 clones) or a PGK-puromycin alone (mock clones). For reporter assays, C17.2 parental cells were transfected with the Nurr1 expression vector, the reporter plasmid (NGFIB-binding response element (NBRE) triplet upstream of TK minimal promoter fused to firefly luciferase) and a pRSV-alkaline phosphatase plasmid at a 2:1:2 ratio.
(§3) C17.2 neural stem cells (Snyder, E. Y. et al. Cell 68, 33-51 (1992)) were maintained and passaged as previously described (Snyder, E. Y. et al. Cell 68, 33-51 (1992)). Ventral mesencephala from E16 rat embryos were dissected, mechanically dissociated and plated at a final density of 1×10^5 cells/cm^2 on poly-D-lysine coated culture wells in a defined, serum-free medium (N^2, consisting of a 1:1 mixture of F12 and DMEM containing insulin (10 ng/ml), transferrin (100 μg/ml), putrescine (100 μM), progesterone (20 nM), selenium (30 nM) glucose (6 mg/ml), and bovine serum albumin (1 mg/ml)). After 24 hours in vitro, co-cultures were initiated by directly plating 2.5−5×10^4 C17.2-derived cells into the primary cultures; all ages of cultures given use this point as 0 DIV. […] Purified Type 1 astrocytes were obtained from mixed glial cultures derived from various regions of P1 rats according to a standard protocol (McCarthy, K. D. et al. J. Cell Biol. 85, 890-902 (1980)). After replating into 6- or 12-well plates, astrocytes were grown to confluency in serum-containing media and changed to N2 medium. After 3-5 DIV, co-cultures were initiated in fresh N2 as described above. All factors were added once, at the initiation of co-culture (concentrations are noted in the Results and Discussion), with the exception of 5-bromodeoxyuridine (BrdU), which was added 4-6 hours prior to fixation. Cultures were maintained in a humidified 5% CO2, 95% air incubator at 37 C and fixed after given time periods with 4% paraformaldehyde for 45 minutes for immunocytochemical analysis.
Fixed cultures were incubated with one of the following antibodies, diluted appropriately in phosphate-buffered saline (PBS) containing 1% bovine serum albumin and 0.3% Triton-X 100: mouse anti-BrdU, 1:50 (DAKO, Denmark), mouse anti-β-tubulin, Type III (TuJ1), 1:250 (Sigma), mouse anti-TH, 1:1000 (Incstar, USA), rabbit anti-β-galactosidase, 1:250 (Cappel, USA) rabbit anti-GFAP, 1:500 (DAKO, Denmark), rabbit anti-AHD-2, 1:4000. Incubations were either carried out at 4° C. overnight, or at room temperature for 1 hour. […] After washing, cultures were incubated for 1-3 hr with appropriate secondary antibodies (biotinylated horse-anti-mouse IgG or goat-anti-rabbit IgG, Vector, USA), 1:100, in the same dilution buffer. Immunostaining was visualized with the Vector Laboratory ABC immunoperoxidase kit, using either AEC (red) or SG (grey) substrates. […] Quantitative immunocytochemical data represent means and standard errors from 100-500 cells counted in each of 3-6 separate wells from 2-4 experiments. For quantitation of TH expression in co-cultures of primary and C-17.2-derived cells, TH was visualized with the brightfield AEC substrate, while β-gal was assessed using FITC, thus all data expressed as “% TH+” represents the number of TH+/β-gal+divided by total β-gal positive cells.

C17.2 clonal lines = experiment: Baseline proliferation of clonal lines after extended factor treatment in serum-free medium; format: cell-based, mouse; details: after extended treatment with the factor in serum-free medium; most clonal lines
Experimental: as §3, with “Cultures were maintained in a humidified 5% CO2, 95% air incubator at 37 C and fixed after given time periods with 4% paraformaldehyde for 45 minutes for immunocytochemical analysis.” left out

Nurr1-C17.2 clone 42 = experiment: Co-culture of Nurr1-C17.2 clone 42 with primary E16 ventral mesencephalic cells; TH expression; format: cell-based, mouse; details: clone 42 with primary VM cells
Experimental: as §1, §2

RXR retinoid receptors = details: Lehmann et al. 1992; cited from earlier work

For “bFGF: basic fibroblast growth factor, mitogen”, the “induction of TH expression” value (parental C17.2 cells) was “did not induce expression of TH”, the “% TH+ cells after co-culture” value (Nurr1 clones; co-culture 9 DIV, highest value, clone 42) was no more than 45% and the “BrdU labeling of pretreated Nurr1 clones” value (Nurr1 clones; 24 hours after passage into co-culture, versus cells split directly out of serum-containing medium) was “increased”. For the same molecule, the mitogenic effect (C17.2 cells) was “directly mitogenic”, the “number of TH+ cells in the culture” value [1] was “dramatically increased the number of TH+ cells” and the “induction of TH expression” value [2] was “None of these factors induced TH expression in any of the clones”. The “baseline proliferation after passage into SFM alone” value (C17.2 clonal lines) was “remained unexpectedly elevated”.
For “EGF: epidermal growth factor, mitogen (NSDSECPLSHDGYCLHDGVCMYIEALDKYACNCVVGYIGERCQYRDLKWWELR; Epidermal growth factor; UniProt P01133 971-1023, looked up)”, the “effect on TH expression in co-culture (in words)” value (Nurr1-C17.2 clone 42) is given as “effects of bFGF could be substituted by EGF”, the mitogenic effect (C17.2 cells) is given as “directly mitogenic” and the “induction of TH expression” value [2] is given as “None of these factors induced TH expression in any of the clones”. For the same molecule, the “baseline proliferation after passage into SFM alone” value (C17.2 clonal lines) was “remained unexpectedly elevated”.
For insulin-like growth factor, the “induction of TH expression” value [2] was “None of these factors induced TH expression in any of the clones”.
With sonic hedgehog the “induction of TH expression” value [2] was “None of these factors induced TH expression in any of the clones”.
In the case of `CC1=C(/C=C/C(C)=C/C=C/C(C)=C/C(=O)O)C(C)(C)CCC1` [all-trans retinoic acid, reference compound], the “effect on TH expression in co-culture (in words)” value (Nurr1-C17.2 clone 42) is reported as “without effect”.
For `CC1(C)CCC(C)(C)c2cc(C3(c4ccc(C(=O)O)cc4)OCCO3)ccc21` [SR11237, reference compound], the “stimulation of RXR retinoid receptors” value (RXR retinoid receptors) is given as “specifically stimulates RXR retinoid receptors” and the “induction of TH expression” value (parental C17.2 cells) is given as “did not induce expression of TH”.
For `NCCc1ccc(O)c(O)c1` [dopamine], the “induction of TH expression” value [2] was “None of these factors induced TH expression in any of the clones”.
